Assay results as given in patent publication US5883077A, “Inhibitors of factor Xa” (Corvas International, Inc., priority 1993, dated 1999).
Square brackets hold non-standard residues; d marks the D form. Peptide text beside a SMILES is read from it. * marks the point of attachment. d2Nal = N[C@H](Cc1ccc2ccccc2c1)C(=O)O; dPhg = N[C@@H](C(=O)O)c1ccccc1; Boc = CC(C)(C)OC(=O)*

How the values were obtained:
Format in all cases: biochemical
[1] = biological target: T1, Human recombinant t-PA (Activase®) (Homo sapiens, UniProt P00750); assay: tPA assay, chromogenic substrate Pefachrome tPA; conditions: 100 times the IC50 for factor Xa divided by the IC50 of tPA
T1 construct: purchased Genentech, Inc
T1 sequence (P00750 36-562): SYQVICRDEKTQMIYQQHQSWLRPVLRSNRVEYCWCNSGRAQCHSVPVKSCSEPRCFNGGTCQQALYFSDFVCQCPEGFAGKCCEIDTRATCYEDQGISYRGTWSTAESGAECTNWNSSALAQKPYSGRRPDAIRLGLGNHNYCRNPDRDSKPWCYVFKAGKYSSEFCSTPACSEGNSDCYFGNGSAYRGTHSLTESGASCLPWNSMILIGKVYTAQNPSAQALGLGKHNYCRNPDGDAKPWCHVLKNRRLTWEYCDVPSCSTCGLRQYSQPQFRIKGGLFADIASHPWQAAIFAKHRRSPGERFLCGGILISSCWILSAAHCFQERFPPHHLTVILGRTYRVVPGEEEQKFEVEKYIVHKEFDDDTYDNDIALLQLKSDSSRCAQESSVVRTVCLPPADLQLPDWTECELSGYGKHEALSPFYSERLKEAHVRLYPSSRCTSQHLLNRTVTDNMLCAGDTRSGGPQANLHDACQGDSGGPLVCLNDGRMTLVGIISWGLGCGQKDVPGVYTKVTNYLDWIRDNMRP
Procedure: (§1) To assay their activities, the compounds of the present invention are dissolved in buffer to give solutions containing concentrations ranging under assay concentrations from 0 to about 100 μM. The enzyme to be tested is then added to a solution containing a specified concentration of the test compound. Then after an incubation period, synthetic substrate for the enzyme being tested is added. The rate of substrate turnover is determined spectrophotometrically. The IC50 of the test compound is determined for each test compound in assays for factor xa, factor XIa, thrombin and tPA. IC50 is that concentration of test compound giving 50% inhibition of the substrate turnover. Percent selectivity is used to indicate selectivity of a compound in inhibiting Factor Xa in comparison with either Factor XIa, thrombin or tPA. Percent selectivity of a particular compound for either Factor XIa, thrombin or tPA refers to a number obtained by dividing the product of one hundred and the IC50 of the compound for Factor Xa by the IC50 of the compound for either Factor XIa, thrombin or tPA.
(§2) The specificity of the peptide aldehydes through was determined in vitro by measurement of their IC50 against factor Xa, factor XIa, thrombin and tissue plasminogen activator (tPA). Peptide aldehyde which has been described in the art was run as a comparison. A specific concentration of enzyme and its substrate were challenged with varying concentrations of inhibitor. IC50 is that concentration of inhibitor giving 50% inhibition of catalytic activity, under the assay conditions. Specific assay procedures used are presented below.
Enzyme activity was determined using as substrate, Pefachrome tPA (O-methylsulfonate-D-hexahydrotyrosine-L-glycyl-L-argini ne-p-nit roanilide acetate salt) which was obtained from Centerchem, Inc. The substrate was made up in deionized water prior to use.
Human recombinant t-PA (Activase®) was obtained from Genentech, Inc. The enzyme was reconstituted with water, then diluted into TBSA prior to use.
The assay was run by combining in appropriate wells 50 μL of TBSA, 50 μL of inhibitor in TBSA or TBSA (as negative control) and 50 μL of 4 nM human recombinant tPA or TBSA (as background control). After incubating this mixture for 60 minutes at room temperature, 50 μL of 4 mM Pefachrome tPA was added to each well and the initial rate of the change of optical density at 405 nm (OD405nm) for each well was determined. OD405nm was measured every 10 seconds for 5 minutes.

Human α-thrombin = biological target: T2, Human α-thrombin (Homo sapiens, UniProt P00734); assay: Thrombin assay, chromogenic substrate S2238; conditions: 100 times the IC50 for factor Xa divided by the IC50 of thrombin
T2 construct: Human α-thrombin was obtained from Enzyme Research Laboratories, Inc; purchased Enzyme Research Laboratories, Inc
Procedure: as §1, §2
Enzyme activity was determined using as substrate, S2238 (D-phenylalanyl-L-pipecolyl-L-arginine-p-nitroanilide dihydrochloride) which was obtained from Kabi Diagnostica. The substrate was made up in deionized water prior to use.
Human α-thrombin was obtained from Enzyme Research Laboratories, Inc. The enzyme was diluted into TBSA prior to use.
The assay was run by combining in appropriate wells 50 μL of TBSA, 50 μL of inhibitor in TBSA or TBSA (as negative control) and 50 μL of 4 nM human α-thrombin or TBSA (as background control). After incubating this mixture for 60 minutes at room temperature, 50 μL of 0.24 mM S-2238 was added to each well and the initial rate of the change of optical density at 405 nm (OD405nm) for each well was determined. OD405nm was measured every 10 seconds for 5 minutes.

Human factor XIa = biological target: T3, Human factor XIa (Homo sapiens, UniProt P03951); assay: Factor XIa assay, chromogenic substrate S2366; conditions: 100 times the IC50 for factor Xa divided by the IC50 of factor XIa
T3 construct: purchased Enzyme Research Laboratories, Inc
T3 sequence (P03951 388-625 limits assumed): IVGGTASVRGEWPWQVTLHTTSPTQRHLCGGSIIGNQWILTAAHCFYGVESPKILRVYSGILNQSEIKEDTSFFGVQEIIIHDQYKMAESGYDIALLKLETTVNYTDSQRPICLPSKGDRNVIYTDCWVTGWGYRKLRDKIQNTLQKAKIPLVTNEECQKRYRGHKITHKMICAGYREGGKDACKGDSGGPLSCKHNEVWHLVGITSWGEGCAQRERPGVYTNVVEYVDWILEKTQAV
T3 sequence (P03951 19-387 partner limits assumed): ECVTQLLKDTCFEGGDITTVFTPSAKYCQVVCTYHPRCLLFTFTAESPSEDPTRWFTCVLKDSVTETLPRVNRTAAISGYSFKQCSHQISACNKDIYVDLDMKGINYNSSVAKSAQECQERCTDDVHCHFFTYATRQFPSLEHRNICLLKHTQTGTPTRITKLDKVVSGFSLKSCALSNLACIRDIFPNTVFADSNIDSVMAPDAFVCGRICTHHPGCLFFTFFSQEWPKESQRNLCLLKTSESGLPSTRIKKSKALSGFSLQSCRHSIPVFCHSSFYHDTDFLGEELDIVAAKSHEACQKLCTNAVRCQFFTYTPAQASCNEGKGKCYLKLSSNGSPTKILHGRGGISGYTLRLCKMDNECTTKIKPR
Procedure: as §1, §2
Enzyme activity was determined using as substrate, S2366 (L-pyroglutamyl-L-prolyl-L-arginine-p-nitroanilide hydrochloride) which was obtained from Kabi Diagnostica. The substrate was made up in deionized water prior to use.
Human factor XIa was obtained from Enzyme Research Laboratories, Inc. The enzyme was diluted into TBSA prior to use.
(§3) The assay was run by combining in appropriate wells 50 μL of TBSA, 50 μL of inhibitor in TBSA or TBSA (as negative control) and 50 μL of 2 nM human Factor XIa or TBSA (as background control). After incubating this mixture for 60 minutes at room temperature, 50 μL of 6 mM S-2366 was added to each well and the initial rate of the change of the optical density at 405 nm (OD405nm) for each well was determined. OD405nm was measured every 10 seconds for 5 minutes.

Human factor Xa = biological target: T4, Human factor Xa (Homo sapiens, UniProt P00742); assay: Factor Xa assay, chromogenic substrate S2765; conditions: taken as 100 for each inhibitor by definition
T4 construct: purchased Enzyme Research Laboratories
T4 sequence (P00742 235-488 limits assumed): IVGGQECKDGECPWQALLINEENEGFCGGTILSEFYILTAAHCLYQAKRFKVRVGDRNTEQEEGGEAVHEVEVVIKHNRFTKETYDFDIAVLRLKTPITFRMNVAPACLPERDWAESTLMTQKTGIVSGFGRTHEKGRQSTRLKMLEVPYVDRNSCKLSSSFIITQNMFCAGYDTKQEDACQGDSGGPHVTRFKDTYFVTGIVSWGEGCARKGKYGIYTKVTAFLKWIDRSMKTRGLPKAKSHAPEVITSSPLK
T4 sequence (P00742 41-179 partner limits assumed): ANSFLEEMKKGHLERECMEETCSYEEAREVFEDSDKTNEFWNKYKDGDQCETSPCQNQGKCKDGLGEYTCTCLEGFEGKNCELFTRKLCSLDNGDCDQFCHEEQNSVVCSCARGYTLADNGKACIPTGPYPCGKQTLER
Procedure: as §1, §2
Enzyme activity was determined using as substrate, S2765 (N-α-benzyloxycarbonyl-D-argininyl-L-glycyl-L-arginine-p-nitroanilide dihydrochloride) which was obtained from Kabi Diagnostica. The substrate was made up in deionized water prior to use.
Human factor Xa was obtained from Enzyme Research Laboratories. The enzyme was diluted into TBSA prior to use.
as §3, with “Factor Xa” for “Factor XIa”, “of 1” for “of 6”, “mM S-2765” for “mM S-2366”

Row | Compound | Percent Selectivity tPA [1] | Percent Selectivity Thrombin (Human α-thrombin) | Percent Selectivity XIa (Human factor XIa) | Percent Selectivity Xa (Human factor Xa)
1 | CC(C)(C)OC(=O)N[C@H](Cc1ccccc1)C(=O)N1CC[C@H](c2ccccc2)[C@H]1C(=O)N[C@H](C=O)CCCNC(=N)N (relative stereo) [[10], N-t-butoxycarbonyl-D-phenylalanyl-L-(3-trans-phenyl)prolinyl-L-argininal] | < 2.5 | < 2.5 | < 2.5 | 100
2 | CC(C)(C)OC(=O)N[C@H](Cc1ccc2ccccc2c1)C(=O)N[C@@H](Cc1ccccc1)C(=O)N[C@H](C=O)CCCNC(=N)N [[1], N-t-butoxycarbonyl-D-3-(2-naphthyl)alanyl-L-phenylalanyl-L-araininal] (Boc-[d2Nal]-Phe-Arg-aldehyde) | < 0.9 | 1.6 | 1.4 | 100
3 | CC(C)(C)OC(=O)N[C@@H](C(=O)N[C@@H](Cc1ccccc1)C(=O)N[C@H](C=O)CCCNC(=N)N)c1ccccc1 [[2], N-t-butoxycarbonyl-D-2-phenylglycyl-L-phenylalanyl-L-araininal] (Boc-[dPhg]-Phe-Arg-aldehyde) | < 2.6 | < 2.6 | 4.9 | 100
4 | CC(C)(C)OC(=O)N[C@H](Cc1ccccc1)C(=O)N[C@@H](Cc1ccccc1)C(=O)N[C@H](C=O)CCCNC(=N)N [[4], N-t-butoxycarbonyl-D-phenylalanyl-L-phenylalanyl-L-argininal] (Boc-[dF]-Phe-Arg-aldehyde) | < 0.8 | < 0.8 | 0.8 | 100
5 | CC(C)(C)OC(=O)NC(C(=O)N[C@@H](Cc1cccc2ccccc12)C(=O)N[C@H](C=O)CCCNC(=N)N)c1ccc(-c2ccccc2)cc1 (stereo partly drawn) [[7], N-t-butoxycarbonyl-D,L-(α-biphenyl)qlycyl-L-3-(1-naphthyl)alanyl-L-argininal] | < 10 | < 10 | < 10 | 100
